Experimental data reported in patent publication US20080241919A1, “Defined media for pluripotent stem cell culture” (The Burnham Institute of Medical Research, priority 2003, published 2008).

Columns and labels:
Assay type in all cases: cell-based
[1] = test system: human embryonic stem cells (hESCs); experiment: Short-term proliferation assay (growth rate) of hESCs in defined hESC media; settings: feeder-free
Experimental: (b) Short-term proliferation assays—assessing cell number. The growth rate of hESCs maintained under the feeder-free condition in the defined hESC media containing 0, 4, 10, 20, 30, or 50 ng/ml bFGF were determined and compared to that of hESCs maintained on laminin/collagen-coated plates in the MEF-conditioned media (MEF-CM) containing 10 ng/ml bFGF (see, for example, Xu, C., et al., Nat. Biotechnol. 19, 971-974 (2001)).
To further assess the effect of bFGF on hESC undifferentiated growth, short-term proliferation assays of hESCs maintained under the feeder-free condition in the defined hESC media containing 0, 4, 10, 20, 30, or 50 ng/ml bFGF were performed. The growth rate (FIG. 1b) and the percentage of undifferentiated colonies (FIG. 1c) in response to bFGF doses were compared to those of hESCs maintained in MEF-conditioned media (MEF-CM) (the latter also actually “spiked” with an additional 10 ng/ml bFGF). […] To further affirm the role of bFGF on hESC undifferentiated growth, hESCs carrying a reporter gene (enhanced green fluorescence protein [EGFP]) under control of Oct-4 promoter were generated (via lentiviral-mediated transduction).

[2] = test system: human embryonic stem cells (hESCs); experiment: Undifferentiated growth of hESCs on human foreskin fibroblast (HFF) feeder layer
Experimental: Next, in order to establish a culture system that was free of non-human animal products, the human foreskin fibroblast (HFF) cell line Hs27 was used as a feeder layer. The human foreskin fibroblast (HFF) cell line, Hs27 (ATCC; Manassas, Va.; www.atcc.org) was expanded to create a master bank of frozen cells. The HFFs were plated in gelatin pre-coated 60 mm plates or 6-well plates at a density of 1.7×10^4/cm^2 and inactivated by irradiating at 50 Gy using a ^137Cs gamma-irradiator before being used as feeder cells. Undifferentiated hESCs, although originally maintained on MEFs, were transferred to plates of HFFs that had been mitotically inactivated by gamma irradiation. In the first attempts to transfer the hESCs to the human feeder layers, far more differentiated cells compared to those grown on MEFs were observed. When dealing with hESCs, the undifferentiated state was assessed by three criteria: (a) distinctive and defining stage-specific morphology and size; (b) the expression of immunomarkers associated with pluripotency; and (c) the absence of immunomarkers associated with lineage commitment.
In this media, less than 80% undifferentiated hESC colonies were observed on HFF feeders on every passage.

[3] = test system: human embryonic stem cells (hESCs); experiment: Medium component requirement assay, hESCs on laminin/collagen-coated plates for seven days; settings: media that contained only the named growth factor
Experimental: (a) Media containing bFGF, insulin, and ascorbic acid sustain the healthy undifferentiated growth of hESCs on laminin/collagen-coated plates. Insulin (20 μg/ml), transferrin (8 μg/ml), albumin (for example, the commercial product known as AlbuMAXI) (10 mg/ml), and ascorbic acid (50 μg/ml) were added to a base medium that consisted of 100% DMEM/F-12 with 20 ng/ml bFGF, 2 mM L-alanyl-L-glutamine, 1×MEM essential amino acids solution, 1×MEM non-essential amino acids solution, and 100 μM β-mercaptoethanol. The degree of differentiation was judged by morphology of the colonies and Oct-4 expression. […] (red). […] However, if ascorbic acid was omitted from the media [D, H, L] […] White arrows in all panels delineate the edge of an hESC colony. The area delineated by the white square in [A], [E], and [I] indicates the approximate area that is visualized at higher magnification in [B, C], [F, G], and [J, K], respectively. [C], [G], and [K] is the image in [B], [F], and [J], respectively, merged with DAPI staining of their nuclei (blue).
(b) When either bFGF or insulin was omitted from the media, hESC colonies appeared to differentiate completely under the feeder- and serum-free conditions. […] The distinct growth effects of insulin and bFGF were further accentuated in media lacking ascorbic acid [C, F] (“NO Ascorbic Acid”). In the absence of ascorbic acid and in media that contained only insulin as the growth factor [C] (phase) (“NO Ascorbic Acid”), slower growth of the differentiated hESCs was observed (compare [A, B] to [C]). In ascorbic-acid-lacking media that contained bFGF as the only growth factor [F] […] White arrows in all panels delineate the edge of hESC colonies.
Having determined that substantial numbers of undifferentiated hESCs could be maintained over long periods in feeder-free environments using the bFGF-supplemented media described above, the necessity of other components in the medium to maintain hESCs in an undifferentiated state was next examined. “Knockout Serum Replacement” contains insulin, transferrin, ascorbic acid, amino acids, and AlbuMAX (a chromatographically-purified lipid-rich bovine serum albumin [BSA] with low IgG content, but nevertheless a xeno-derived product). Accordingly, whether insulin, transferrin, BSA, and ascorbic acid were essential components was assessed, in combination with bFGF, for maintaining hESCs in an undifferentiated state. The serum replacement components insulin (20 μg/ml), transferrin (8 μg/ml), albumin (AlbuMAX) (10 mg/ml), and ascorbic acid (50 μg/ml) were added to a base medium that consisted of DMEM/F-12 or KO-DMEM with bFGF (20 ng/ml), L-alanyl-L-glutamine or L-glutamine (2 mM), MEM essential amino acids solution (1×), MEM nonessential amino acids solution (1×), and β-mercaptoethanol (100 μM). To assay for the differentiation-forestalling activity of each of these components, undifferentiated hESCs were seeded on laminin/collagen-coated plates and cultivated for seven days in media containing one or more of the individual components. The degree of differentiation of the colonies was judged by defining morphology and Oct-4 expression.
When either bFGF or insulin was omitted from the media, more than 90% of the colonies appeared to differentiate completely within the first passage, as indicated by their differentiated morphology (FIG. 2b, A,B,D,E), their complete loss of Oct-4 expression, and their expression of the cell surface marker SSEA-1 (FIG. 2c, B,C). […] The different effects of insulin and bFGF were accentuated further in media lacking ascorbic acid. In the absence of ascorbic acid and in media containing only insulin, the growth of differentiated hESCs was simply slower (FIG. 2b, C). […] Although albumin and transferrin are not crucial components for sustaining the undifferentiated growth of hESCs, they might abet survival or maintenance of a normal colony shape.

bFGF: basic fibroblast growth factor, growth factor added to the defined hESC media
growth rate of hESCs ([1]; bFGF 10 to 50 ng/ml, compared with MEF-CM): growth rate comparable to that maintained in MEF-CM | growth of hESCs ([1]; low concentration of bFGF (4 ng/ml), defined media): significantly slow growth | size of hESC colonies on HFFs ([2]; bFGF increased to 20 ng/ml from 4 ng/ml): significantly larger | number of passages undifferentiated hESCs maintained on HFF feeder layers ([2]; medium with bFGF 20 ng/ml): more than 50 passages | time undifferentiated hESCs maintained on HFF feeder layers ([2]; medium with bFGF 20 ng/ml): over 12 months | undifferentiated hESC colonies on HFF feeders on every passage ([2]; medium with bFGF 20 ng/ml, 20% knockout Serum Replacement): less than 80% | cell morphology in differentiated colonies [3]: elliptically-shaped cells
